Source: patent KR20230047805A, “알기나제 유래 펩타이드를 포함하는 심혈관 질환 예방 또는 치료용 조성물” (강원대학교산학협력단, priority 2021, dated 2023)

Experiments:
p32 단백질 [1] = molecular target: T1, p32 단백질 (Homo sapiens, UniProt Q07021); experiment: Western blot of p32 protein level in peptide-treated HUVECs; type: cell-based; details: 12 h
T1 construct: 펩타이드를 처리한 HUVECs을 1X SDS sample buffer로 lysis한 뒤; endogenous in cells; host or cells: HUVECs
T1 sequence (Q07021 74-282): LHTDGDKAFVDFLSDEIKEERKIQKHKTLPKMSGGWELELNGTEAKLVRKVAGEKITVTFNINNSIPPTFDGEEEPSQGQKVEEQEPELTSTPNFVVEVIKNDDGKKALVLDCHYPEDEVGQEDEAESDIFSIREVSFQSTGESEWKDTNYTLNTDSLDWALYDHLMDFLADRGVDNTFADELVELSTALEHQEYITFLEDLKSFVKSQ

CaMKII = experiment: Western blot of CaMKII phosphorylation in peptide-treated HUVECs; type: cell-based, human; details: peptide 10 μM, 12 h
[2] = Tail-cuff blood pressure measurement (CODA) in wild-type mice after i.v. peptide; type: in vivo, mouse; details: WT mice, 0.25 mM/kg i.v. once daily, 4day
p32 단백질 [3] = molecular target: T1, p32 단백질; experiment: Co-immunoprecipitation: ubiquitination of p32 in HUVECs; type: cell-based; details: peptide 10 μM, 12 h, co-IP with p32 antibody
ApoE-/-+HCD 생쥐 대동맥 [4] = experiment: ROS measurement (DHE fluorescence) in aorta of atherosclerosis model mice after i.v. peptide; type: in vivo, mouse; details: 0.25 mM/kg i.v. every second day, 5 injections in 10 days
ApoE-/-+HCD 생쥐 대동맥 [5] = experiment: NO measurement (DAF-FM fluorescence) in aorta of atherosclerosis model mice after i.v. peptide; type: in vivo, mouse; details: 0.25 mM/kg i.v. every second day, 5 injections in 10 days
p32 단백질 [6] = molecular target: T1, p32 단백질; experiment: Mitochondrial fractionation and immunoblotting of p32 in HUVECs; type: cell-based; details: peptide 10 μM, 12 h, mitochondrial fraction
p32 단백질 [7] = molecular target: T1, p32 단백질; experiment: p32 protein level under proteasome inhibition (MG132) in HUVECs, Western blot; type: cell-based; details: peptide 10 μM, 12 h
알기나제와 p32 단백질의 결합 = molecular target: T2, 알기나제와 p32 단백질의 결합 (Homo sapiens, UniProt Q07021); experiment: Co-immunoprecipitation: binding of arginase and p32 in HUVECs; type: cell-based; details: peptide 10 μM, 12 h, co-IP with p32 antibody
T2 construct: YDIQY 펩타이드를 처리한 HUVECs을 RIPA buffer를 이용하여 lysis하고; endogenous in cells; host or cells: HUVECs
T2 sequence (Q07021 74-282): T1 sequence (Q07021 74-282)

ApoE-/-+HCD 생쥐 대동맥 절편 = experiment: Vascular tension measurement of aortic segments of atherosclerosis model mice after i.v. peptide; type: in vivo, mouse
eNOS = experiment: Western blot of eNOS phosphorylation (Ser1177, Thr495) in peptide-treated HUVECs; type: cell-based, human; details: peptide 10 μM, 12 h

Substance: YDIQY: penta-peptide of SEQ ID NO: 1 designed from the arginase/p32 binding site; p32 inhibiting activity (printed: Tyr Asp Ile Gln Tyr)
- p32 protein level (p32 단백질 [1]; peptide 10 μM, Western blot): 감소되었고
- cytoplasmic p32 protein level (p32 단백질 [1]; peptide 0.01, 0.1, 1, 10 μM): 농도 의존적으로 감소
- CaMKII phosphorylation (activity) (CaMKII): 증가하였고
- 수축기 (systolic pressure) [2]: 유의하게 감소
- 이완기 (diastolic pressure) [2]: 유의하게 감소
- 평균 대동맥압 (mean aortic pressure) [2]: 유의하게 감소
- p32 ubiquitination vs control (p32 단백질 [3]): 증가되어
- ROS production in aorta (ApoE-/-+HCD 생쥐 대동맥 [4]): 정상 생쥐 수준만큼 회복
- NO production in aorta (ApoE-/-+HCD 생쥐 대동맥 [5]): 정상 생쥐 수준만큼 회복
- mitochondrial p32 protein level (p32 단백질 [6]): 유의하게 감소
- p32 protein level (p32 단백질 [7]; with proteasome inhibitor MG132 10 μM, 24 h): 감소되지 않는
- p32 protein level (p32 단백질 [7]; without MG132): 감소하였지만
- binding of p32 with arginase vs control (알기나제와 p32 단백질의 결합): 감소되어있는
- Ach-dependent relaxation of aortic segments (ApoE-/-+HCD 생쥐 대동맥 절편; ApoE-/-+HCD mice, 0.25 mM/kg i.v. x5, Ach 10-9~10^-5 M): 정상 생쥐 수준만큼 회복되는
- PE-dependent contraction of aortic segments (ApoE-/-+HCD 생쥐 대동맥 절편; ApoE-/-+HCD mice, 0.25 mM/kg i.v. x5, PE 10-9~10^-5 M): 정상 생쥐 수준만큼 회복하는
- KCl contraction of aortic segments (ApoE-/-+HCD 생쥐 대동맥 절편; four groups compared, KCl 60 mM, 20 min): 차이가 없음
- SNP-dependent (endothelium-independent) relaxation of aortic segments (ApoE-/-+HCD 생쥐 대동맥 절편; four groups compared, SNP 10-10~10^-6 M): 차이가 없음
- eNOS Ser1177 (activating site) phosphorylation (eNOS): 증가되었으며
- eNOS Thr495 (inactivating site) phosphorylation (eNOS): 감소되는
